Test results: patent US20210171948A1, “COMPOSITIONS AND METHODS FOR TARGETING GLYPICAN-2 IN THE TREATMENT OF CANCER” (Shepherd Therapeutics, Inc., priority 2019, published 2021)
Strand notation (5' to 3'): a small letter for the sugar, then the base; units joined by * are phosphorothioate-linked, units joined directly phosphodiester-linked; [ ] holds rarer units or linkages, { } end groups; capitals alone tell only the bases. d = 2'-deoxy (DNA); r = 2'-OH (RNA)

Legend:
Assay in all cases: Carboplatin IC50 in siRNA-transfected cells, Cell Titer Glo 2.0 viability (Example 6)
Assay type in all cases: cell-based
SK-N-BE2 cells = tested on: SK-N-BE2 cells
Description: (§1) GPC2 mRNA expression was reduced using the indicated siRNAs and changes in cell viability were assessed in multiple neuroblastoma cell lines. Cells were transfected with either a control siRNA or with GPC2 siRNA sequences 3, 5 or 7 from Table 7 using the RNAiMAX Lipofectamine kit (Invitrogen, Carlsbad, Calif.) as previously described in 96 wells for viability assays. Carboplatin was added at increasing concentrations (0 to 150 uM) to transfected cells at 24 hours post transfection. Following a 72 hour incubation period, viability measurements were made using Cell Titer Glo 2.0.

SH-SY5Y cells = tested on: SH-SY5Y cells
Description: as §1

CHLA-90 cells = tested on: CHLA-90 cells
Description: as §1

CHP212 cells = tested on: CHP212 cells
Description: as §1

GPC2 siRNA 7: siRNA duplex: sense CUCCUUUCUGGUUCACACA[dT][dT] (SEQ ID NO: 215), anti-sense UGUGUGAACCAGAAAGGAG[dT][dT] (SEQ ID NO: 216) (sense rCrUrCrCrUrUrUrCrUrGrGrUrUrCrArCrArCrAdTdT; antisense rUrGrUrGrUrGrArArCrCrArGrArArArGrGrArGdTdT; listed as Homo sapiens)
Data Summary: effect of knockdown on sensitivity to carboplatin (SK-N-BE2 cells; SK-N-BE2): increases sensitivity to
IC50 (SK-N-BE2 cells; SK-N-BE2 cells transfected with the labelled siRNA, carboplatin added 24 hours post transfection, 72 hour incubation): 2.5 µM
Data Summary: effect of knockdown on sensitivity to carboplatin (SH-SY5Y cells; SH-SY5Y): increases sensitivity to
IC50 (SH-SY5Y cells; SH-SY5Y cells transfected with the labelled siRNA, carboplatin added 24 hours post transfection, 72 hour incubation): 0.47 µM
Data Summary: effect of knockdown on sensitivity to carboplatin (CHLA-90 cells; CHLA-90): increases sensitivity to
IC50 (CHLA-90 cells; CHLA-90 cells transfected with the labelled siRNA, carboplatin added 24 hours post transfection, 72 hour incubation): 15 µM
Data Summary: effect of knockdown on sensitivity to carboplatin (CHP212 cells; CHP212): increases sensitivity to
IC50 (CHP212 cells; CHP212 cells transfected with the labelled siRNA, carboplatin added 24 hours post transfection, 72 hour incubation): 8.14 µM
